Assay results from US10294202B2, “Pyrrolidinones as herbicides” (FMC Corporation, priority 2013, dated 2019).

Assays:
[1] = system: wheat; assay: Test A pre-/postemergence herbicide test; format: in vivo, Triticum aestivum
Outline: (§1)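 Approximately 10 days after treatment in the greenhouse, plants were compared with untreated controls and given a 0–100 visual injury rating. Applications: preemergence directed soil spray; postemergence on 2–10 cm plants at the one- to two-leaf stage.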

[2] = system: galium; assay: Test C pre-/postemergence herbicide test; format: in vivo, Galium aparine
Outline: (§2)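 Plants grown and held in a greenhouse for 13 to 15 days post-spray, then rated 0–100 by visual comparison with controls. Pre treatments targeted seeds in loam and sand; post treatments targeted 1- to 4-leaf plants in peat-based potting medium.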

[3] = system: foxtail, giant; assay: Test C pre-/postemergence herbicide test; format: in vivo, Setaria faberii
Outline: as §2

[4] = system: johnsongrass; assay: Test C pre-/postemergence herbicide test; format: in vivo, Sorghum halepense
Outline: as §2

[5] = system: lambsquarters; assay: Test C pre-/postemergence herbicide test; format: in vivo, Chenopodium album
Outline: as §2

[6] = system: waterhemp; assay: Test C pre-/postemergence herbicide test; format: in vivo, Amaranthus rudis
Outline: as §2

[7] = system: oilseed rape; assay: Test C pre-/postemergence herbicide test; format: in vivo, Brassica napus
Outline: as §2

[8] = system: pigweed; assay: Test A pre-/postemergence herbicide test; format: in vivo, Amaranthus retroflexus
Outline: as §1

[9] = system: nutsedge, yellow; assay: Test C pre-/postemergence herbicide test; format: in vivo, Cyperus esculentus
Outline: as §2

[10] = system: corn; assay: Test C pre-/postemergence herbicide test; format: in vivo, Zea mays
Outline: as §2

[11] = system: pigweed; assay: Test C pre-/postemergence herbicide test; format: in vivo, Amaranthus retroflexus
Outline: as §2

[12] = system: velvetleaf; assay: Test C pre-/postemergence herbicide test; format: in vivo, Abutilon theophrasti
Outline: as §2

[13] = Postemergence, 125 g ai/ha, visual rating on 0 to 100 scale (0 no effect, 100 complete control), approx. 10 days
[14] = Postemergence, 500 g ai/ha, 0 to 100 scale (0 no effect, 100 complete control)
[15] = Postemergence, 31 g ai/ha, scale 0 to 100 (0 no effect, 100 complete control)
[16] = Postemergence, 62 g ai/ha, scale 0 (no effect) to 100 (complete control)
[17] = Postemergence, 125 g ai/ha, scale 0 to 100 (0 no effect, 100 complete control)
[18] = Postemergence, 250 g ai/ha, scale 0 to 100 (0 no effect, 100 complete control)
[19] = Preemergence, 31 g ai/ha, scale 0 to 100, 0 is no effect and 100 is complete control
[20] = Preemergence, 62 g ai/ha, scale 0 to 100 (0 no effect, 100 complete control)
[21] = Preemergence, 125 g ai/ha, scale 0 to 100 (0 no effect, 100 complete control)
[22] = Postemergence, 125 g ai/ha, 0 to 100 scale, 0 no effect, 100 complete control
[23] = Preemergence, 125 g ai/ha, visual rating on 0 to 100 scale (0 no effect, 100 complete control)
[24] = preemergence, 500 g ai/ha, 0 to 100 scale
[25] = Preemergence, 62 g ai/ha, scale 0 to 100

O=C1NCC(c2cccc(Cl)c2)C1C(=O)Nc1cccc(F)c1F (racemic) [Compound 275]
55: Plant response rating, Galium [2, 16] | Plant response rating, Corn [10, 18]
20: Plant response rating, Waterhemp [6, 18] | Plant response rating, Pigweed ([8]; Preemergence, 125 g ai/ha, 0 to 100 scale where 0 is no effect and 100 is complete control) | Plant response rating, Nutsedge, Yellow [9, 18]
50: Plant response rating, Galium [2, 15] | Johnsongrass plant response rating [4, 20] | Oilseed Rape plant response rating [7, 20] | Plant response rating, Velvetleaf [12, 18]
95: Foxtail, Giant plant response rating [3, 20]
25: Plant response rating, Johnsongrass [4, 18] | Nutsedge, Yellow plant response rating [9, 20] | Plant response rating, Velvetleaf [12, 21]
75: Plant response rating, Galium [2, 17] | Plant response rating, Foxtail, Giant [3, 16] | Plant response rating, Johnsongrass [4, 21] | Plant response rating, Lambsquarters [5, 17] | Plant response rating, Lambsquarters [5, 18] | Lambsquarters plant response rating [5, 20] | Plant response rating, Corn [10, 21] | Plant response rating (scale of 0 to 100), Corn ([10]; Preemergence, 250 g ai/ha)
85: Plant response rating (scale of 0 to 100), Galium ([2]; Preemergence, 250 g ai/ha) | Plant response rating (scale of 0 to 100), Johnsongrass ([4]; Preemergence, 250 g ai/ha) | Plant response rating, Lambsquarters [5, 21]
90: Galium plant response rating [2, 20] | Plant response rating, Foxtail, Giant [3, 18] | Foxtail, Giant plant response rating [3, 19] | Plant response rating, Oilseed Rape [7, 21] | Plant response rating (scale of 0 to 100), Oilseed Rape ([7]; Preemergence, 250 g ai/ha)
15: Plant response rating, Waterhemp [6, 21]
5: Plant response rating, Oilseed Rape [7, 15] | Plant response rating, Oilseed Rape [7, 16] | Plant response rating, Pigweed [11, 15] | Plant response rating, Pigweed [11, 16] | Plant response rating, Velvetleaf [12, 15]
70: Plant response rating, Wheat [1, 14] | Lambsquarters plant response rating [5, 19]
60: Plant response rating, Lambsquarters [5, 16] | Plant response rating (scale of 0 to 100), Waterhemp ([6]; Preemergence, 250 g ai/ha)
10: Plant response rating, Foxtail, Giant [3, 15] | Johnsongrass plant response rating [4, 19] | Plant response rating, Lambsquarters [5, 15] | Corn plant response rating [10, 20] | Plant response rating, Pigweed [11, 21] | Plant response rating, Velvetleaf [12, 16] | Plant response rating, Velvetleaf [12, 17]
45: Plant response rating, Oilseed Rape [7, 18] | Nutsedge, Yellow plant response rating [9, 19]
100: Plant response rating (scale of 0 to 100), Foxtail, Giant ([3]; Preemergence, 250 g ai/ha) | Plant response rating (scale of 0 to 100), Nutsedge, Yellow ([9]; Preemergence, 250 g ai/ha)
0: Galium plant response rating [2, 19] | Plant response rating, Johnsongrass [4, 15] | Plant response rating, Johnsongrass [4, 16] | Plant response rating, Johnsongrass [4, 17] | Plant response rating, Waterhemp [6, 15] | Plant response rating, Waterhemp [6, 16] | Plant response rating, Waterhemp [6, 17] | Waterhemp plant response rating [6, 19] | Waterhemp plant response rating [6, 20] | Oilseed Rape plant response rating [7, 19] | Plant response rating, Nutsedge, Yellow [9, 15] | Plant response rating, Nutsedge, Yellow [9, 16] | Plant response rating, Nutsedge, Yellow [9, 17] | Plant response rating, Corn [10, 15] | Plant response rating, Corn [10, 16] | Plant response rating, Corn [10, 17] | Corn plant response rating [10, 19] | Pigweed plant response rating [11, 19] | Pigweed plant response rating [11, 20] | Velvetleaf plant response rating [12, 19] | Velvetleaf plant response rating [12, 20]
98: Plant response rating, Foxtail, Giant [3, 21] | Plant response rating (scale of 0 to 100), Lambsquarters ([5]; Preemergence, 250 g ai/ha)
35: Plant response rating, Foxtail, Giant [3, 17] | Plant response rating, Oilseed Rape [7, 17] | Plant response rating, Nutsedge, Yellow [9, 21] | Plant response rating, Pigweed [11, 18]
30: Plant response rating, Galium [2, 21] | Plant response rating, Pigweed [8, 13] | Plant response rating, Pigweed ([8]; preemergence, 500 g ai/ha, 0 to 100 scale, 0 is no effect and 100 is complete control) | Plant response rating, Pigweed [11, 17] | Plant response rating (scale of 0 to 100), Velvetleaf ([12]; Preemergence, 250 g ai/ha)
40: Plant response rating, Wheat [1, 13] | Plant response rating, Pigweed [8, 14] | Plant response rating (scale of 0 to 100), Pigweed ([11]; Preemergence, 250 g ai/ha)
80: Plant response rating, Galium [2, 18]

O=C1NCC(c2ccc(F)c(C(F)(F)F)c2)C1C(=O)Nc1ccccc1C(F)(F)F (racemic) [Compound 78]
0: Wheat plant response rating [1, 23] | Plant response rating, Wheat [1, 24] | Johnsongrass plant response rating [4, 19] | Plant response rating, Johnsongrass [4, 25] | Oilseed Rape plant response rating [7, 19] | Nutsedge, Yellow plant response rating [9, 19] | Plant response rating, Nutsedge, Yellow [9, 25] | Plant response rating, Nutsedge, Yellow [9, 21] | Plant response rating (scale of 0 to 100), Nutsedge, Yellow ([9]; Preemergence, 250 g ai/ha) | Corn plant response rating [10, 19] | Plant response rating, Corn [10, 25] | Pigweed plant response rating [11, 19]
15: Plant response rating, Johnsongrass [4, 21] | Velvetleaf plant response rating [12, 19] | Plant response rating, Velvetleaf [12, 25]
40: Plant response rating, Wheat [1, 22] | Plant response rating, Lambsquarters [5, 25] | Plant response rating, Corn [10, 21] | Plant response rating, Pigweed [11, 25] | Plant response rating, Pigweed [11, 21] | Plant response rating (scale of 0 to 100), Pigweed ([11]; Preemergence, 250 g ai/ha)
10: Plant response rating, Oilseed Rape [7, 25] | Plant response rating, Oilseed Rape [7, 21] | Pigweed plant response rating [8, 23]
75: Plant response rating, Waterhemp [6, 25] | Plant response rating (scale of 0 to 100), Oilseed Rape ([7]; Preemergence, 250 g ai/ha)
60: Plant response rating, Galium [2, 21] | Plant response rating (scale of 0 to 100), Johnsongrass ([4]; Preemergence, 250 g ai/ha) | Plant response rating, Pigweed [8, 24] | Plant response rating (scale of 0 to 100), Corn ([10]; Preemergence, 250 g ai/ha)
95: Plant response rating, Foxtail, Giant [3, 25] | Plant response rating, Foxtail, Giant [3, 21]
85: Plant response rating (scale of 0 to 100), Galium ([2]; Preemergence, 250 g ai/ha) | Foxtail, Giant plant response rating [3, 19] | Plant response rating, Lambsquarters [5, 21] | Plant response rating (scale of 0 to 100), Lambsquarters ([5]; Preemergence, 250 g ai/ha) | Plant response rating, Waterhemp [6, 21] | Plant response rating (scale of 0 to 100), Waterhemp ([6]; Preemergence, 250 g ai/ha)
20: Plant response rating, Velvetleaf [12, 21] | Plant response rating (scale of 0 to 100), Velvetleaf ([12]; Preemergence, 250 g ai/ha)
98: Plant response rating (scale of 0 to 100), Foxtail, Giant ([3]; Preemergence, 250 g ai/ha)
50: Plant response rating, Wheat [1, 14] | Galium plant response rating [2, 19] | Plant response rating, Galium [2, 25] | Waterhemp plant response rating [6, 19] | Plant response rating, Pigweed [8, 22] | Plant response rating, Pigweed [8, 14]
